In patent publication US20260171190A1, “ASSESSMENT OF GR CELLULAR SIGNALING PATHWAY ACTIVITY USING MATHEMATICAL MODELLING OF TARGET GENE EXPRESSION” (priority 2021, published 2026):
Where two headings read alike, the source gives them in different places.

Tested on: GR cellular signaling pathway
Method: Triple Negative Breast cancer cell line (MDA-MB-231) treated for 4, 8, 12 hrs with vehicle, 100 nM dexamethasone, 100 nM dexamethasone and 100 nM mifrepristone (GCR antagonist), or 100 nM dexamethasone and 100 nM CORT108297 (GCR antagonist).
GR pathway activity scores are presented on a normalized 0-100 scale.

Row | Compound | antagonism of the dexamethasone effect on GR pathway activity (MDA-MB-231, 100 nM dexamethasone and 100 nM antagonist, 4, 8, 12 hrs) | antagonism of the dexamethasone effect on GR pathway activity
1 | CCOC[C@]12Cc3cnn(-c4ccc(F)cc4)c3C=C1CCN(S(=O)(=O)c1ccc(C(F)(F)F)cc1)C2 [CORT108297] | minimally effective | –
2 | CC#C[C@]1(O)CC[C@H]2[C@@H]3CCC4=CC(=O)CCC4=C3[C@@H](c3ccc(N(C)C)cc3)C[C@@]21C [Mifrepristone] | – | strong dexamethasone antagonist
